Like-named read-outs stand apart in the source and are kept apart here.
Test system: M. mycetomatis genome strain MM55
Assay: CLSI M38-A2 based in vitro susceptibility screening (XTT or resazurin), growth at fixed concentration
Type: cell-based, Madurella mycetomatis
Conditions: Madurella mycetomatis
[1] = 25 uM, mean of three replicates, read-out: Percentage survival at 25um, 25 uM mean
[2] = 25 uM, replicate A, read-out: Percentage survival at 25um, 25 um A
[3] = 25 uM, replicate B, read-out: Percentage survival at 25um, 25 uM B
[4] = 25 uM, replicate C, read-out: Percentage survival at 25um, 25 uM C
[5] = mean of three replicates, read-out: Percentage survival at 100um, 100 uM mean
[6] = replicate 1, read-out: Percentage survival at 100um, 100 uM A (first replicate column)
[7] = replicate 2, read-out: Percentage survival at 100um, 100 uM A (second replicate column)
[8] = replicate 3, read-out: Percentage survival at 100um, 100 uM A (third replicate column)
[9] = 25 uM, replicate A, M. mycetomatis MM55, read-out: Percentage survival at 25um, 25 um A
[10] = mean of three, M. mycetomatis MM55, read-out: Percentage survival at 100um, 100 uM mean
[11] = replicate 1, M. mycetomatis MM55, read-out: Percentage survival at 100um, 100 uM A (first replicate column)
[12] = replicate 2, M. mycetomatis MM55, read-out: Percentage survival at 100um, 100 uM A (second replicate column)
[13] = replicate 3, M. mycetomatis MM55, read-out: Percentage survival at 100um, 100 uM A (third replicate column)
[14] = read-out: Percentage survival at 25um, 25 uM B
[15] = read-out: Percentage survival at 25um, 25 uM C
[16] = read-out: Percentage survival at 25um, 25 uM mean
[17] = 25 uM, mean of replicates, read-out: Percentage survival at 25um, 25 uM mean
[18] = mean of replicates, read-out: Percentage survival at 100um, 100 uM mean
[19] = first replicate column, read-out: Percentage survival at 100um, 100 uM A
[20] = second replicate column, read-out: Percentage survival at 100um, 100 uM A
[21] = third replicate column, read-out: Percentage survival at 100um, 100 uM A
[22] = 25 uM, mean of three, M. mycetomatis MM55, read-out: Percentage survival at 25um, 25 uM mean
[23] = 25 uM, replicate B, M. mycetomatis MM55, read-out: Percentage survival at 25um, 25 uM B
[24] = 25 uM, replicate C, M. mycetomatis MM55, read-out: Percentage survival at 25um, 25 uM C

Nc1cc(-c2nc3ccccc3[nH]2)n[nH]c1=O [MMV975972] was tested. Which activity at 25 µM [1] did it give?
The activity at 25 µM was 97%.

And the activity at 25 µM [2]?
Its activity at 25 µM is 99%.

And the activity at 25 µM [3]?
The activity at 25 µM was 101%.

And the activity at 25 µM [4]?
The activity at 25 µM was 90.7%.

And the activity at 100 µM [5]?
The activity at 100 µM was 95.6%.

And the activity at 100 µM [6]?
The activity at 100 µM was 105%.

What about the Percent fungal survival at 100 µM [7] of the same compound?
The Percent fungal survival at 100 µM was 90.7%.

What about the activity at 100 µM [8] of the same compound?
Its activity at 100 µM is 91.4%.

NS(=O)(=O)c1ccc(NC(=O)NC(c2ccccc2)c2ccccc2)cc1 [MMV1579776] was tested. Which activity at 25 µM [9] did it give?
Its activity at 25 µM is 95.1%.

What about the activity at 100 µM [10] of the same compound?
The activity at 100 µM was 97%.

What about the activity at 100 µM [11] of the same compound?
Its activity at 100 µM is 103%.

What about the activity at 100 µM [12] of the same compound?
The activity at 100 µM was 98.7%.

And the activity at 100 µM [13]?
Its activity at 100 µM is 89%.

What about the activity at 25 µM [14] of the same compound?
Its activity at 25 µM is 101%.

What about the activity at 25 µM [15] of the same compound?
Its activity at 25 µM is 86.7%.

And the activity at 25 µM [16]?
The activity at 25 µM was 94.2%.

Which activity at 25 µM (25 uM, mean, read-out: Percentage survival at 25um, 25 uM mean) does the source give for CCCNc1ccc(S(=O)(=O)Nc2cc(C)on2)cc1 [MMV1782216] here?
The activity at 25 µM was 75.9%.

And the activity at 25 µM [2]?
Its activity at 25 µM is 81.9%.

What about the activity at 25 µM [3] of the same compound?
The activity at 25 µM was 68.5%.

And the activity at 25 µM [4]?
Its activity at 25 µM is 77.2%.

What about the activity at 100 µM (mean, read-out: Percentage survival at 100um, 100 uM mean) of the same compound?
Its activity at 100 µM is 87.1%.

And the activity at 100 µM (replicate (first column), read-out: Percentage survival at 100um, 100 uM A)?
The activity at 100 µM was 83.4%.

What about the activity at 100 µM (replicate (second column), read-out: Percentage survival at 100um, 100 uM A) of the same compound?
Its activity at 100 µM is 74.1%.

And the activity at 100 µM (replicate (third column), read-out: Percentage survival at 100um, 100 uM A)?
The activity at 100 µM was 104%.

Which activity at 25 µM [17] does the source give for Nc1cccc(-c2nc(N)nc(NC3Cc4ccccc4C3)n2)c1 [MMV1581555] here?
Its activity at 25 µM is 86%.

And the activity at 25 µM [2]?
Its activity at 25 µM is 98.9%.

What about the activity at 25 µM [3] of the same compound?
Its activity at 25 µM is 85.3%.

What about the activity at 25 µM [4] of the same compound?
Its activity at 25 µM is 73.8%.

What about the activity at 100 µM [18] of the same compound?
Its activity at 100 µM is 85.5%.

What about the activity at 100 µM (replicate 1, read-out: Percentage survival at 100um, 100 uM A) of the same compound?
Its activity at 100 µM is 81.1%.

What about the activity at 100 µM (replicate 2, read-out: Percentage survival at 100um, 100 uM A) of the same compound?
The activity at 100 µM was 89%.

And the activity at 100 µM (replicate 3, read-out: Percentage survival at 100um, 100 uM A)?
Its activity at 100 µM is 86.6%.

O=C(/C=C\n1cnc(-c2cc(C(F)(F)F)cc(C(F)(F)F)c2)n1)NNc1ccccn1 [MMV1580493] was tested. Which activity at 25 µM [17] did it give?
The activity at 25 µM was 67.9%.

What about the activity at 25 µM [2] of the same compound?
Its activity at 25 µM is 79.7%.

What about the activity at 25 µM [3] of the same compound?
Its activity at 25 µM is 83.9%.

What about the activity at 25 µM [4] of the same compound?
Its activity at 25 µM is 40.3%.

What about the activity at 100 µM [18] of the same compound?
The activity at 100 µM was 77.3%.

And the activity at 100 µM [6]?
Its activity at 100 µM is 119%.

And the Percent fungal survival at 100 µM [7]?
Its Percent fungal survival at 100 µM is 80%.

What about the activity at 100 µM [8] of the same compound?
Its activity at 100 µM is 32.4%.

c1cc(CN2CCCNCCNCCCNCC2)ccc1CN1CCCNCCNCCCNCC1 [MMV1580502] was tested. Which activity at 25 µM (25 uM, mean of replicates, MM55, read-out: Percentage survival at 25um, 25 uM mean) did it give?
The activity at 25 µM was 91.1%.

What about the activity at 25 µM (25 uM, replicate A, MM55, read-out: Percentage survival at 25um, 25 um A) of the same compound?
The activity at 25 µM was 89%.

And the activity at 25 µM (25 uM, replicate B, MM55, read-out: Percentage survival at 25um, 25 uM B)?
The activity at 25 µM was 97.4%.

What about the activity at 25 µM (25 uM, replicate C, MM55, read-out: Percentage survival at 25um, 25 uM C) of the same compound?
The activity at 25 µM was 86.9%.

And the activity at 100 µM (mean of replicates, MM55, read-out: Percentage survival at 100um, 100 uM mean)?
The activity at 100 µM was 83.6%.

And the activity at 100 µM (replicate 1, MM55, read-out: Percentage survival at 100um, 100 uM A)?
The activity at 100 µM was 86.9%.

What about the activity at 100 µM (replicate 2, MM55, read-out: Percentage survival at 100um, 100 uM A) of the same compound?
The activity at 100 µM was 83.7%.

What about the activity at 100 µM (replicate 3, MM55, read-out: Percentage survival at 100um, 100 uM A) of the same compound?
The activity at 100 µM was 80.2%.

With [N-]=[N+]=N[C@H]1C[C@H](n2ccc(=O)[nH]c2=O)O[C@@H]1CO [MMV1593520] as the compound, how does the activity at 25 µM [2] read?
The activity at 25 µM was 94.3%.

And the activity at 100 µM [19]?
The activity at 100 µM was 91.5%.

And the activity at 100 µM [5]?
The activity at 100 µM was 87%.

What about the activity at 100 µM [20] of the same compound?
The activity at 100 µM was 80.1%.

What about the activity at 100 µM [21] of the same compound?
The activity at 100 µM was 89.4%.

And the activity at 25 µM [14]?
Its activity at 25 µM is 107%.

What about the activity at 25 µM [15] of the same compound?
The activity at 25 µM was 100%.

And the activity at 25 µM [16]?
Its activity at 25 µM is 100%.

Which results are given for CCc1cc(O)c(Oc2cccnc2N)cc1F [MMV1580854]?
activity at 25 µM [22]: 86.4%; activity at 25 µM [9]: 97.5%; activity at 25 µM [23]: 88.8%; activity at 25 µM [24]: 72.9%; activity at 100 µM [10]: 101%; activity at 100 µM [11]: 78.2%; Percent fungal survival at 100 µM [12]: 91.9%; activity at 100 µM [13]: 132%

For CC[N+]1(C/C2=C/CCCCCC2)CCC(NC(=O)C2c3cc(Cl)ccc3Oc3ccc(Cl)cc32)CC1 (stereo not shown) [MMV1580489], which activity at 25 µM [1] is on record?
The activity at 25 µM was 93.8%.

What about the activity at 25 µM [2] of the same compound?
Its activity at 25 µM is 90.3%.

What about the activity at 25 µM [3] of the same compound?
Its activity at 25 µM is 102%.

And the activity at 25 µM [4]?
Its activity at 25 µM is 88.6%.

What about the activity at 100 µM [19] of the same compound?
Its activity at 100 µM is -9.19%.

And the activity at 100 µM [5]?
Its activity at 100 µM is -2.01%.

What about the activity at 100 µM [20] of the same compound?
Its activity at 100 µM is -1.42%.

And the activity at 100 µM [21]?
The activity at 100 µM was 4.58%.

Which activity at 25 µM [1] does the source give for COc1cc(C(C)(C)CCCC(C)C)cc(OC)c1OC [MMV1782102] here?
The activity at 25 µM was 78.4%.

And the activity at 25 µM [2]?
Its activity at 25 µM is 88.5%.

And the activity at 25 µM [3]?
The activity at 25 µM was 83%.

What about the activity at 25 µM [4] of the same compound?
The activity at 25 µM was 63.5%.

And the activity at 100 µM [19]?
The activity at 100 µM was 90.3%.

And the activity at 100 µM [5]?
The activity at 100 µM was 83.9%.

What about the activity at 100 µM [20] of the same compound?
Its activity at 100 µM is 86%.

And the activity at 100 µM [21]?
The activity at 100 µM was 75.5%.

What does the source list for O=C(NCc1ccccc1Cl)c1cnc2ccccc2n1 [MMV1230557]?
activity at 25 µM [22]: 56.8%; activity at 25 µM [9]: 50.8%; activity at 25 µM [23]: 54.2%; activity at 25 µM [24]: 65.3%; activity at 100 µM [10]: 67.2%; activity at 100 µM [11]: 41.9%; Percent fungal survival at 100 µM [12]: 71.7%; activity at 100 µM [13]: 88.1%

— paper PMC8815882, “Screening the pandemic response box identified benzimidazole carbamates, Olorofim and ravuconazole as promising drug candidates for the treatment of eumycetoma” (PLoS Neglected Tropical Diseases, 2022)
